Each compound was assayed on E. coli ATCC25922 (assay: Antibacterial activity in combination with minocycline (growth inhibition)). Conditions: Escherichia coli, ATCC25922, compound at 25 μM; minocycline 0.25 μg/mL; OD625 23 h minus 1 h; read-out: residual growth of E. coli ATCC25922 (% of uninhibited control) with minocycline.
Format: cell-based
Outline: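 Test compound combined with fixed subinhibitory partner antibiotic: linezolid 128 μg/mL for either strain, minocycline 0.25 μg/mL (E. coli) or 8 μg/mL (P. aeruginosa), in caMHB shaken at 37 °C. Residual growth as % of inhibitor-free control, from OD625 at 23 h minus 1 h.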
`N#Cc1ccc(/C=C/c2cccc(CNCC3CNC3)c2)cc1C(F)(F)F` [Example 308] gave an activity at 25 µM of no more than 10%.
`C=CCOc1cc(/C=C/c2cc(C#N)cc(C(F)(F)F)c2)cc(CNCC2CNC2)c1` [Example 309] gave an activity at 25 µM of no more than 10%.
`C=CCOc1cc(/C=C/c2ccc(C#N)cc2C(F)(F)F)cc(CNCC2CNC2)c1` [Example 310] showed an activity at 25 µM of no more than 10%.
Compound `C=CCOc1cc(/C=C/c2ccc(C(F)(F)F)cc2C#N)cc(CNCC2CNC2)c1` [Example 311] has an activity at 25 µM of no more than 10%.
`N#Cc1ccc(/C=C/c2cccc(CNCC3CNC3)c2)c(C(F)(F)F)c1` [Example 312] showed an activity at 25 µM of no more than 10%.
With `C=CCOc1cc(/C=C/c2ccc(C#N)cc2C(F)(F)F)cc(CNCC2CCNC2)c1` (stereo not drawn) [Example 313] the activity at 25 µM was no more than 10%.
For `C=CCOc1cc(/C=C/c2ncccc2C#N)cc(CNCC2CCNC2)c1` (stereo not drawn) [Example 315], the activity at 25 µM was no more than 10%.
Compound `C=CCOc1cc(/C=C/c2cccs2)cc(CNCC2CNC2)c1` [Example 317] has an activity at 25 µM of no more than 10%.
Compound `C=CCOc1cc(/C=C/c2ccsc2)cc(CNCC2CNC2)c1` [Example 318] has an activity at 25 µM of no more than 10%.
`C=CCOc1cc(/C=C/c2ccc(C(F)(F)F)c(C#N)c2)cc(CNCC2CNC2)c1` [Example 321] showed an activity at 25 µM of no more than 10%.
`C=CCOc1cc(CCc2ccc(OC)cc2OC)cc(CNCC2CNC2)c1` [Example 322] showed an activity at 25 µM of no more than 10%.
With `C=CCOc1cc(/C=C/c2ccnc(C#N)c2)cc(CNCC2CCNC2)c1` (stereo not drawn) [Example 324] the activity at 25 µM was no more than 10%.
For `C=CCOc1cc(/C=C/c2cncc(C#N)c2)cc(CNCC2CCNC2)c1` (stereo not drawn) [Example 325], the activity at 25 µM was no more than 10%.
`C=CCOc1cc(/C=C/c2ccc(C#N)nc2)cc(CNCC2CCNC2)c1` (stereo not drawn) [Example 326] showed an activity at 25 µM of no more than 10%.
`C=CCOc1cc(/C=C/c2csc(C(C)C)n2)cc(CNCC2CNC2)c1` [Example 327] gave an activity at 25 µM of no more than 10%.
In the case of `C=CCOc1cc(/C=C/c2c(C#N)cccc2C(F)(F)F)cc(CNCC2CNC2)c1` [Example 328], the activity at 25 µM is reported as no more than 10%.
`C=CCOc1cc(/C=C/c2cc(C#N)ccn2)cc(CNCC2CCNC2)c1` (stereo not drawn) [Example 329] showed an activity at 25 µM of no more than 10%.
With `C=CCOc1cc(/C=C/c2csc(C(C)C)n2)cc(CNCC2CCNC2)c1` (stereo not drawn) [Example 330] the activity at 25 µM was no more than 10%.
Work on `CC(C)COc1cc(/C=C/c2ccccn2)cc(CNCC2CCNC2)c1` (stereo not drawn) [Example 333] yielded an activity at 25 µM of no more than 10%.
Compound `CC(C)COc1cc(/C=C/c2ccncc2)cc(CNCC2CCNC2)c1` (stereo not drawn) [Example 334] has an activity at 25 µM of no more than 10%.
`C=CCOc1cc(/C=C/c2cccnc2)cc(CNCC2CNC2)c1` [Example 335] showed an activity at 25 µM of no more than 10%.
`C=CCOc1cc(/C=C/c2ccccn2)cc(CNCC2CNC2)c1` [Example 336] showed an activity at 25 µM of no more than 10%.
With `C=CCOc1cc(/C=C/c2ccncc2)cc(CNCC2CNC2)c1` [Example 338] the activity at 25 µM was no more than 10%.
Compound `C=CCOc1cc(/C=C/c2ccc(C(N)=O)cc2)cc(CNCC2CNC2)c1` [Example 339] has an activity at 25 µM of no more than 10%.
With `C=CCOc1cc(/C=C/c2cccc(C(N)=O)c2)cc(CNCC2CNC2)c1` [Example 340] the activity at 25 µM was no more than 10%.
`Clc1ccc(/C=C/c2cc(CNCC3CCNC3)cc(OCCc3ccccn3)c2)c(Br)c1` (stereo not drawn) [Example 341] was tested, and the activity at 25 µM was no more than 10%.
`NC(=O)COc1cc(/C=C/c2ccc(Cl)cc2Br)cc(CNCC2CCNC2)c1` (stereo not drawn) [Example 342] was tested, and the activity at 25 µM was no more than 10%.
`Clc1ccc(/C=C/c2cc(CNCC3CCNC3)cc(OCc3c[nH]cn3)c2)c(Br)c1` (stereo not drawn) [Example 344] showed an activity at 25 µM of no more than 10%.
Work on `Cn1cnc(COc2cc(/C=C/c3ccc(Cl)cc3Br)cc(CNCC3CCNC3)c2)c1` (stereo not drawn) [Example 345] yielded an activity at 25 µM of no more than 10%.
With `Clc1ccc(/C=C/c2cc(CNCC3CCNC3)cc(OCc3ccccn3)c2)c(Br)c1` (stereo not drawn) [Example 346] the activity at 25 µM was no more than 10%.
For `Cc1cc(COc2cc(/C=C/c3ccc(Cl)cc3Br)cc(CNCC3CCNC3)c2)no1` (stereo not drawn) [Example 347], the activity at 25 µM was no more than 10%.
`C=CCOc1cc(/C=C/c2nc(C(F)(F)F)cs2)cc(CNCC2CNC2)c1` [Example 348] showed an activity at 25 µM of no more than 10%.
Compound `C=CCOc1cc(/C=C/c2ccc(Cl)cc2Br)cc(CNC(=O)C2CCNCC2)c1` [Example 354, N-[[3-allyloxy-5-[(E)-2-(2-bromo-4-chloro-phenyl)vinyl]phenyl]methyl]piperidine-4-carboxamide] has an activity at 25 µM of no more than 10%.
With `C=CCOc1cc(/C=C/c2nc(C3CC3)cs2)cc(CNCC2CCNC2)c1` (stereo not drawn) [Example 355] the activity at 25 µM was no more than 10%.
In the case of `C=CCOc1cc(/C=C/c2nc(C3CC3)cs2)cc(CNCC2CNC2)c1` [Example 356], the activity at 25 µM is reported as no more than 10%.
For `C=CCOc1cc(CNCC2CCNC2)cc(CNC(=O)c2ccc(C(C)(C)C)cc2)c1` (stereo not drawn) [Example 357], the activity at 25 µM was no more than 10%.
Work on `Cc1nc(COc2cc(/C=C/c3ccc(Cl)cc3Br)cc(CNCC3CCNC3)c2)cs1` (stereo not drawn) [Example 359] yielded an activity at 25 µM of no more than 10%.
With `Clc1ccc(/C=C/c2cc(CNCC3CCNC3)cc(OCc3ccncc3)c2)c(Br)c1` (stereo not drawn) [Example 360] the activity at 25 µM was no more than 10%.
`Nc1nc(COc2cc(/C=C/c3ccc(Cl)cc3Br)cc(CNCC3CCNC3)c2)cs1` (stereo not drawn) [Example 361] gave an activity at 25 µM of no more than 10%.
`C=CCOc1cc(/C=C/c2nc(C(C)C)cs2)cc(CNCC2CNC2)c1` [Example 362] gave an activity at 25 µM of no more than 10%.
In the case of `C=CCOc1cc(CNCC2CCNC2)cc(CNS(=O)(=O)c2ccc(C(C)(C)C)cc2)c1` (stereo not drawn) [Example 364], the activity at 25 µM is reported as no more than 10%.
`C=CCOc1cc(/C=C/c2ccc(Cl)cc2Br)cc(CNC(=O)[C@@H]2CCNC2)c1` [Example 367] was tested, and the activity at 25 µM was no more than 10%.
`C=CCOc1cc(CNCC2CNC2)cc(CNS(=O)(=O)c2ccc(C(C)(C)C)cc2)c1` [Example 369, N-[[3-allyloxy-5-[(azetidin-3-ylmethylamino)methyl]phenyl]methyl]-4-tert-butyl-benzenesulfonamide] showed an activity at 25 µM of no more than 10%.
In the case of `C=CCOc1cc(CNCC2CNC2)cc(C(=O)NCc2ccc(Cl)cc2Br)c1` [Example 370], the activity at 25 µM is reported as no more than 10%.
`C=CCOc1cc(/C=C/c2ccc(Cl)cc2Br)cc(CNC(=O)CNCC2CNC2)c1` [Example 371] was tested, and the activity at 25 µM was no more than 10%.
`C=CCOc1cc(CNCC2CCNC2)cc(C(=O)Nc2ccc(Cl)cc2Br)c1` (stereo not drawn) [Example 373] showed an activity at 25 µM of no more than 10%.
For `CC(C)COc1cc(/C=C/c2ccccc2C(N)=O)cc(CNCC2CCNC2)c1` (stereo not drawn) [Example 375], the activity at 25 µM was no more than 10%.
`C=CCOc1cc(CNCC2CNC2)cc(CNC(=O)c2ccc(Cl)cc2Br)c1` [Example 376] showed an activity at 25 µM of no more than 10%.
`CC(C)(C)c1ccc(S(=O)(=O)NCc2cc(CNCC3CCNC3)cc(OCCc3c[nH]cn3)c2)cc1` (stereo not drawn) [Example 377] gave an activity at 25 µM of no more than 10%.
`C=CCOc1cc(CNCC2CCNC2)cc(C(=O)NCc2ccc(Cl)cc2Br)c1` (stereo not drawn) [Example 380] was tested, and the activity at 25 µM was no more than 10%.
For `O=c1[nH]nc(COc2cc(/C=C/c3ccc(Cl)cc3Br)cc(CNCC3CCNC3)c2)o1` (stereo not drawn) [Example 381], the activity at 25 µM was no more than 10%.
`CC(C)COc1cc(C[N+](C)(C)CC2CNC2)cc(OCc2ccc(Cl)cc2Br)c1` [Example 382] was tested, and the activity at 25 µM was no more than 10%.
`C=CCOc1cc(C[N+](C)(C)CC2CCNC2)cc(OCc2ccc(Cl)cc2Br)c1` (stereo not drawn) [Example 388] showed an activity at 25 µM of no more than 10%.
Compound `NC(=O)CCOc1cc(/C=C/c2ccc(Cl)cc2Br)cc(CNCC2CCNC2)c1` (stereo not drawn) [Example 390] has an activity at 25 µM of no more than 10%.
`C=CCOc1cc(CNCC2CNC2)cc(C(=O)Nc2nc(C(C)(C)C)cs2)c1` [Example 392] was tested, and the activity at 25 µM was no more than 10%.
`C=CCOc1cc(CNCC2CNC2)cc(C(=O)Nc2ccc(Cl)cc2Br)c1` [Example 394, 3-allyloxy-5-[(azetidin-3-ylmethylamino)methyl]-N-(2-bromo-4-chloro-phenyl)benzamide] gave an activity at 25 µM of no more than 10%.
Work on `C=CCOc1cc(C[N+](C)(C)CC2CNC2)cc(OCc2ccc(Cl)cc2Br)c1` [Example 395] yielded an activity at 25 µM of no more than 10%.
`C=CCOc1cc(/C=C/c2ccc(Cl)cc2Br)cc(C[N+](C)(C)CC2CCNC2)c1` (stereo not drawn) [Example 396] gave an activity at 25 µM of no more than 10%.
For `CC(C)COc1ccc(/C=C/c2ccc(Br)cc2Cl)cc1CNCC1CCNC1` (stereo not drawn) [Example 397], the activity at 25 µM was no more than 10%.
`C[N+](C)(Cc1cc(/C=C/c2ccc(Cl)cc2Br)cc(OCCc2c[nH]cn2)c1)CC1CCNC1` (stereo not drawn) [Example 398] showed an activity at 25 µM of no more than 10%.
`CC(C)(C)c1ccc(S(=O)(=O)Nc2ccc(CNCC3CCNC3)cc2OCCc2c[nH]cn2)cc1` (stereo not drawn) [Example 399, 4-tert-butyl-N-[2-[2-(1H-imidazol-4-yl)ethoxy]-4-[(pyrrolidin-3-ylmethylamino)methyl]phenyl]benzenesulfonamide] showed an activity at 25 µM of no more than 10%.
Compound `CC(C)COc1ccc(/C=C/c2ccc(Br)cc2Cl)cc1CNCC1CNC1` [Example 401] has an activity at 25 µM of no more than 10%.
`C=CCOc1cc(/C=C/c2ccc(Cl)cc2Br)cc(C[N+](C)(C)CC2CNC2)c1` [Example 402] showed an activity at 25 µM of no more than 10%.
`C=CCOc1ccc(OCc2ccc(Br)cc2Cl)cc1CNCC1CCNC1` (stereo not drawn) [Example 405] was tested, and the activity at 25 µM was no more than 10%.
In the case of `C=CCOc1ccc(OCc2ccc(Br)cc2Cl)cc1CNCC1CNC1` [Example 406], the activity at 25 µM is reported as no more than 10%.
Work on `C=CCOc1ccc(/C=C/c2ccc(Br)cc2Cl)cc1CNCC1CCNC1` (stereo not drawn) [Example 407] yielded an activity at 25 µM of no more than 10%.
Compound `C[N+](C)(Cc1cc(/C=C/c2ccc(Cl)cc2Br)cc(OCCc2c[nH]cn2)c1)CC1CNC1` [Example 408] has an activity at 25 µM of no more than 10%.
`C=CCOc1ccc(OCc2ccc(Cl)cc2Br)cc1CNCC1CCNC1` (stereo not drawn) [Example 412] gave an activity at 25 µM of no more than 10%.
Compound `C=CCOc1ccc(OCc2ccc(Cl)cc2Br)cc1CNCC1CNC1` [Example 413] has an activity at 25 µM of no more than 10%.

Same assay, conditions: Escherichia coli, ATCC25922, compound at 50 μM; minocycline 0.25 μg/mL; OD625 23 h minus 1 h; read-out: residual growth of E. coli ATCC25922 (% of uninhibited control) with minocycline
In the case of `Clc1ccc(/C=C/c2cc(CNCC3CCNC3)cc(OCc3ccccn3)c2)c(Br)c1` (stereo not drawn) [Example 346], the activity at 50 µM is reported as no more than 50%.
Compound `O=C(NCc1cc(CNCC2CCNC2)cc(OCCc2c[nH]cn2)c1)c1nc(C2CC2)cs1` (stereo not drawn) [Example 391] has an activity at 50 µM of no more than 50%.
Work on `O=C(NCc1cc(CNCC2CCNC2)cc(OCCc2c[nH]cn2)c1)c1ccc(Cl)cc1Br` (stereo not drawn) [Example 393] yielded an activity at 50 µM of no more than 50%.
`C=CCOc1cc(CNCC2CNC2)cc(OCCc2ccccn2)c1` [Example 409] showed an activity at 50 µM of no more than 50%.
`C=CCOc1cc(CNCC2CCNC2)cc(OCCc2ccccn2)c1` (stereo not drawn) [Example 410] gave an activity at 50 µM of no more than 50%.
`C=CCOc1cc(CNCC2CNC2)cc(OCCc2cccnc2)c1` [Example 414] gave an activity at 50 µM of no more than 50%.
